Reference: PubChem BioAssay (NCI)
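Growth conditions: 96-well plates. Treatment: test compound, 48 hours, 5 concentrations. Analysis: linear interpolation between bracketing concentrations; unreached endpoints set to highest concentration. TGI is the concentration that stops growth completely.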

Tests used:
Experiment in all cases: inhibition of tumour cell growth, NCI panel, 48 h
[1] = test system: NCI-H522 lung
[2] = test system: TK-10 renal
[3] = test system: COLO 205 colon
[4] = test system: HCC-2998 colon
[5] = test system: CCRF-CEM leukemia
[6] = test system: SK-MEL-5 melanoma
[7] = test system: OVCAR-5 ovarian
[8] = test system: RPMI-8226 leukemia
[9] = test system: NCI-H23 lung
[10] = test system: OVCAR-8 ovarian
[11] = test system: HOP-62 NSCLC
[12] = test system: SF-539 CNS
[13] = test system: MALME-3M melanoma
[14] = test system: SNB-75 CNS
[15] = test system: A498 renal
[16] = test system: NCI/ADR-RES ovarian
[17] = test system: T-47D breast
[18] = test system: MCF7 breast
[19] = test system: HS 578T breast

Structure (SMILES)	TGI [1]	TGI [2]	TGI [3]	TGI [4]	TGI [5]	TGI [6]	TGI [7]	TGI [8]	TGI [9]	TGI [10]	TGI [11]	TGI [12]	TGI [13]	TGI [14]	TGI [15]	TGI [16]	TGI [17]	TGI [18]	TGI [19]
COc1ccc(-c2cc(=O)c3cc(Cl)ccc3[nH]2)cc1	> 100 µM	> 100 µM	> 100 µM	> 100 µM	> 100 µM	> 100 µM	> 100 µM	> 100 µM	> 100 µM	> 100 µM	> 100 µM	> 100 µM	> 100 µM	> 100 µM					
CSc1nc(NC2OCC(OC(C)=O)C(OC(C)=O)C2OC(C)=O)c2c(n1)OCC2=O (configuration not stated)	> 100 µM	> 100 µM	> 100 µM	> 100 µM	> 100 µM	> 100 µM	> 100 µM	> 100 µM	> 100 µM	> 100 µM	> 100 µM	> 100 µM	> 100 µM	> 100 µM	> 100 µM				
CCc1ccc(Cc2ccc(CC)c(NC(=O)C(=O)C3NC(=S)NC3=O)c2CC)c(CC)c1NC(=O)C(=O)C1NC(=S)NC1=O (configuration not stated)	> 100 µM	> 100 µM	> 100 µM	> 100 µM	> 100 µM	> 100 µM	> 100 µM	> 100 µM	> 100 µM	> 100 µM	> 100 µM	> 100 µM	> 100 µM	> 100 µM	> 100 µM				
O=C(O[C@H]1[C@@H]2C=CO[C@@H](OC3OC(CO)C(O)C(O)C3O)[C@@H]2[C@@]2(CO)O[C@@H]12)c1ccc(O)c(O)c1 (some centres not stated)	> 100 µM	> 100 µM	> 100 µM	> 100 µM	> 100 µM	> 100 µM	> 100 µM	> 100 µM	> 100 µM	> 100 µM	> 100 µM	> 100 µM	> 100 µM	> 100 µM	> 100 µM				
COc1ccc2c(=O)c3c([nH]c2c1)OCC3=O		> 100 µM	> 100 µM	> 100 µM	> 100 µM	> 100 µM		> 100 µM	> 100 µM	> 100 µM	> 100 µM	> 100 µM		> 100 µM	> 100 µM	> 100 µM	> 100 µM	> 100 µM	> 100 µM
N#Cc1ccccc1NC(=O)C(=O)C(C(=O)c1ccncc1)C1OC(=O)c2ccccc21 (configuration not stated)	> 100 µM	> 100 µM	> 100 µM	> 100 µM	> 100 µM	> 100 µM	> 100 µM		> 100 µM	> 100 µM	> 100 µM	> 100 µM	> 100 µM	> 100 µM	> 100 µM				
CN/N=C(\C(=O)Nc1ccc(C(F)(F)F)cc1[N+](=O)[O-])C(c1cnc2ccc([N+](=O)[O-])cc2n1)[N+](=O)[O-] (configuration not stated)	66.3 µM		> 100 µM	84.8 µM	> 100 µM	> 100 µM	79.5 µM	> 100 µM	> 100 µM	> 100 µM	> 100 µM	> 100 µM	> 100 µM		> 100 µM				
